Reference: paper PMC5118987 (Antimicrobial Agents and Chemotherapy, 2016)
Where two headings read alike, the source gives them in different places.

Assays:
[1] = Cytotoxicity assay in MT-4 cells; type: cell-based; details: human, uninfected MT-4 cells
Procedure: (§1) For the antiviral assay utilizing MT-2 and MT-4 cells, 50 μl of a 2× test concentration of 5-fold serially diluted compound in culture medium with 10% FBS was added to each well of a 96-well plate (9 concentrations) in triplicate. MT-2 and MT-4 cells were infected with HIV-1 IIIb at a multiplicity of infection (MOI) of 0.01 for 3 h. Fifty microliters of infected cell suspension in culture medium with 10% FBS (∼1.5 × 10^4 cells) then was added to each well containing 50 μl of diluted compound. The plates were then incubated at 37°C for 5 days. After 5 days of incubation, 100 μl of CellTiter-Glo reagent (Promega Biosciences, Inc., Madison, WI) was added to each well containing MT-2 or MT-4 cells. Cell lysis was carried out by incubation at room temperature for 10 min and chemiluminescence was read. For compound cytotoxicity assessment, the protocol was identical except that uninfected cells were used and compounds were serially diluted 3-fold.

HIV-1 IIIb [2] = test: microbe, parasite or virus in culture; details: Human immunodeficiency virus 1, IIIB, MT4
Procedure: Each compound series was prepared several times independently in quadruplicate to capture the variations in Hill slope associated with preparation of compound serial dilutions. The assay was performed in a 384-well format. MT-4 cells were infected in bulk at the same MOI as that described above, and the plates were developed with CellTiter-Glo reagent 5 days postinfection.

[3] = system: NRTI-, NNRTI- and PI-Resistant HIV-1 Mutants; test: Antiviral activity against NRTI-, NNRTI- and PI-resistant HIV-1 mutants; type: cell-based; details: Human immunodeficiency virus 1; WT, Table S7
Influenza A/PC/1/73 = test: microbe, parasite or virus in culture; type: cell-based; details: NHBE
[4] = Cytotoxicity in AD38 cells; details: human
[5] = system: HRV (mixture of HRV1A, HRV14, HRV16); test: microbe, parasite or virus in culture; type: cell-based; details: Human rhinovirus sp., H1-HeLa
HCV 2a Replicon = test: Anti-HCV activity, HCV 2a replicon; details: Hepatitis C virus, Huh-7
Influenza B/LEE/40 = test: microbe, parasite or virus in culture; type: cell-based; details: NHBE
HIV-1 BaL [6] = details: primary CD4+ T-cells, 35 days, drug at tissue culture equivalent clinical Cmin (FTC 160 × EC50)
HIV-1 IIIb [7] = test: Antiviral assay in MT-2 cells; type: cell-based
Procedure: as §1

[8] = system: INSTI-resistant HIV-1 mutants (HXB2); test: microbe, parasite or virus in culture; type: cell-based
HIV-1 clonal variants = test: PhenoSense integrase assay, clonal variants from EVG/COBI/FTC/TDF virologic failures; type: cell-based; details: Human immunodeficiency virus 1, NL43, read-out: mean EC50 of wild-type virus
From the text: Clonal Analysis of HIV-1 from Patients. Plasma from 16 patients treated in Studies GS-US-236-0102 and GS-US-236-0103 with confirmed virologic failure and resistance development in the HIV-1 integrase gene were sent to Monogram Biosciences (South San Francisco, CA) for clonal analysis. The HIV-1 RNA was isolated and the cDNA was synthesized using Monogram proprietary primers. Using proprietary primers, PCR amplification of the entire protease, reverse transcriptase, and integrase coding regions of the pol gene were performed. PCR products were inserted into T/A cloning vectors.
Approximately 20 clones were chosen per patient sample for sequencing using proprietary primers. A subset of clones was chosen for phenotypic analysis based on the presence of INSTI resistance mutations. Resistance test vectors containing the patient-derived integrase coding region from selected clones were constructed using standard Monogram Biosciences protocols. […]
values) in these clones were obtained through a contract study by Monogram Biosciences using the PhenoSense integrase assay. The fold-change from the NL4-3 wild-type reference vector values was determined.

in vitro = details: human, CC50 in Primary Human Hepatocytes
HIV-2 CDC 310319 = test: Antiviral assay against HIV-2 isolate in fresh human PBMCs (RT endpoint); details: Human immunodeficiency virus 2, PBMC
HIV-1 BaL [9] = test: Antiviral assay in monocyte-derived macrophages (p24 ELISA); details: Human immunodeficiency virus 1, BAL, Macrophage
From the text: Freshly isolated human peripheral blood mononuclear cells (PBMCs) were obtained from healthy volunteers (supplied by AllCells, Inc., Alameda, CA). Blood donors were negative for HIV-1, hepatitis B, and hepatitis C viral infections. CD4^+ T lymphocytes were isolated by negative selection using a magnetically labeled antibody cocktail ([sequence] Technologies Inc., Vancouver, Canada) and cultured in RPMI cell culture media (Life Technologies, Grand Island, NY) supplemented with 10% FBS. CD4^+ T cells were activated for 48 h at 37°C by addition of 1 μg/ml phytohemagglutinin (PHA; Sigma, St. Louis, MO) and 5 ng/ml interleukin-2 (IL-2; Roche Diagnostics, Indianapolis, IN).
A 3-fold serial dilution of test compounds in RPMI medium was added to triplicate wells and incubated at 37°C for 5 days. Human monocytes were seeded on 96-well plates at a density of 3 × 10^5 cells per well, differentiated into adherent macrophages, and then infected with HIV-1 BaL virus in 50 μl RPMI for 3 h at 37°C. […] The supernatants derived from the CD4^+ T-cell and macrophage cultures were harvested 6 and 12 days postinfection, respectively, and the amount of HIV present was quantified by p24 enzyme-linked immunosorbent assay (ELISA) (PerkinElmer, Waltham, MA).

[10] = system: inhibitor-selected HIV-1 IIIb passages; test: Phenotypic profile of selected HIV-1 passages; type: cell-based; details: Human immunodeficiency virus 1, IIIB
[11] = Cytotoxicity assay in MT-2 cells; type: cell-based; details: human, uninfected MT-2 cells
Procedure: as §1

[12] = Human immunodeficiency virus 1, MT2, 120 h, MT-2 cells, HIV-1 IIIb, 5 days, read-out: EC50
[13] = Human immunodeficiency virus 1, HXB2, IN mutant E92Q
[14] = Human immunodeficiency virus 1, HXB2, IN mutant E92Q/N155H
[15] = Human immunodeficiency virus 1, HXB2, IN mutant E138K/Q148K
[16] = Human immunodeficiency virus 1, HXB2, IN mutant G140S/Q148R
[17] = Human immunodeficiency virus 1, HXB2, IN mutant M50I (BIC/DTG selection)
[18] = Human immunodeficiency virus 1, HXB2, IN mutant M50I/R263K (BIC selection)
[19] = Human immunodeficiency virus 1, HXB2, IN mutant M50I/S119R/R263K (DTG selection)
[20] = Human immunodeficiency virus 1, HXB2, IN mutant N155H
[21] = Human immunodeficiency virus 1, HXB2, IN mutant N155H/Q148R
[22] = Human immunodeficiency virus 1, HXB2, IN mutant Q148R
[23] = Human immunodeficiency virus 1, HXB2, IN mutant R263K (BIC/DTG selection), Table 7
[24] = Human immunodeficiency virus 1, HXB2, IN mutant R263K, Table 6
[25] = Human immunodeficiency virus 1, HXB2, IN mutant S119R (DTG selection)
[26] = Human immunodeficiency virus 1, HXB2, IN mutant S119R/R263K (DTG selection)
[27] = Human immunodeficiency virus 1, HXB2, IN mutant S153Y (DTG selection)
[28] = Human immunodeficiency virus 1, HXB2, IN mutant S153Y/R263K (DTG selection)
[29] = Human immunodeficiency virus 1, HXB2, IN mutant Y143R
[30] = Human immunodeficiency virus 1, HXB2, WT (HXB2), Table 6, read-out: EC50
[31] = 480 h, selected virus EVG P2 (day 20, 7.2 nM)
[32] = selected virus BIC P3 (day 47, 6 nM)
[33] = selected virus BIC P5 (day 71, 12 nM)
[34] = selected virus BIC P6 (day 86, 24 nM)
[35] = selected virus BIC P8 (day 156, 96 nM)
[36] = selected virus BIC P9 (day 181, 192 nM)
[37] = selected virus BIC P10 (day 234, 384 nM)
[38] = selected virus DTG P3Lo (day 59, 6.4 nM)
[39] = selected virus DTG P4 (day 87, 9.6 nM)
[40] = selected virus DTG P5 (day 97, 14.4 nM)
[41] = selected virus DTG P7 (day 139, 32.4 nM)
[42] = selected virus DTG P9 (day 174, 72.9 nM)
[43] = selected virus DTG P10 (day 202, 109.4 nM)
[44] = selected virus EVG P4 (day 41, 28.8 nM)
[45] = selected virus EVG P6 (day 56, 115 nM)
[46] = selected virus EVG P7 (day 67, 230 nM)
[47] = selected virus EVG P9 (day 94, 922 nM)
[48] = selected virus EVG P10 (day 119, 1843 nM)

O=C(NCc1c(F)cc(F)cc1F)c1cn2c(c(O)c1=O)C(=O)N1[C@H]3CC[C@H](C3)O[C@@H]1C2 [BIC, Bictegravir]
CC50 at 5 days [1]: 3660 nM | EC50 (HIV-1 IIIb [2]): 1.9 ± 0.6 nM | EC50 [3]: 1.7 ± 0.5 nM | EC50 (Influenza A/PC/1/73): 53500 nM | CC50 at 5 days [4]: > 50000 nM | EC50 [5]: > 50000 nM | EC50 (HCV 2a Replicon): > 44000 nM | EC50 (Influenza B/LEE/40): 37200 nM | Frequency of Viral Breakthrough with RAMs (HIV-1 BaL [6]): 0% | p24+ Wells (HIV-1 BaL [6]): 0/24 | EC50 (HIV-1 IIIb [7]; Human immunodeficiency virus 1, IIIB, MT2, T-cell lines and primary human T lymphocytes, read-out: 50% effective concentrations): 1.5 to 2.4 nM | EC50 (HIV-1 IIIb [7]; [12]): 1.5 ± 0.2 nM | EC50 [8, 13]: 2 ± 0.8 nM | EC50 [8, 14]: 2 ± 0.2 nM | EC50 [8, 15]: 13.7 ± 1.2 nM | EC50 [8, 16]: 3.1 ± 0.8 nM | EC50 [8, 17]: 1.9 ± 0.3 nM | EC50 [8, 18]: 4.2 ± 0.9 nM | EC50 [8, 19]: 6.4 ± 1.6 nM | EC50 [8, 20]: 1.6 ± 0.4 nM | EC50 [8, 21]: 7.1 ± 4.3 nM | EC50 [8, 22]: 1 ± 0.3 nM | EC50 [8, 23]: 3.2 ± 0.7 nM | EC50 [8, 24]: 2.9 ± 0.7 nM | EC50 [8, 25]: 2.7 ± 0.7 nM | EC50 [8, 26]: 4.2 ± 1.3 nM | EC50 [8, 27]: 3.9 ± 0.7 nM | EC50 [8, 28]: 8.3 ± 1.4 nM | EC50 [8, 29]: 1.8 ± 0.5 nM | EC50 [8, 30]: 1.6 ± 0.4 nM | EC50 ([8]; Human immunodeficiency virus 1, HXB2, WT (HXB2), Table 7, read-out: EC50): 1.5 ± 0.3 nM | cross-resistance to single-mutant HIV-1 variants ([8]; {}): 1-2 fold | EC50 (HIV-1 clonal variants): 1.55 nM | CC50 (in vitro; Donor 1): > 100000 nM | CC50 (in vitro; Donor 2): > 100000 nM | EC50 (HIV-2 CDC 310319): 1.7 ± 1 nM | EC50 (HIV-1 BaL [9]): 6.6 ± 4.1 nM | EC50 [10, 31]: 5.8 nM | EC50 ([10]; HIV-1-IIIb (unselected)): 2.2 nM | EC50 [10, 32]: 3.8 nM | EC50 [10, 33]: 5.8 nM | EC50 [10, 34]: 7.8 nM | EC50 [10, 35]: 11.2 nM | EC50 [10, 36]: 17.5 nM | EC50 [10, 37]: 13.5 nM | EC50 [10, 38]: 2.9 nM | EC50 [10, 39]: 7.8 nM | EC50 [10, 40]: 10.6 nM | EC50 [10, 41]: 21.8 nM | EC50 [10, 42]: 23.8 nM | EC50 [10, 43]: 30 nM | EC50 [10, 44]: 6.5 nM | EC50 [10, 45]: 6.8 nM | EC50 [10, 46]: 8.9 nM | EC50 [10, 47]: 6.8 nM | EC50 [10, 48]: 2.9 nM | CC50 at 5 days [11]: 10300 nM

C[C@@H]1CCO[C@H]2Cn3cc(C(=O)NCc4ccc(F)cc4F)c(=O)c(O)c3C(=O)N12 [DTG, Dolutegravir]
CC50 at 5 days [1]: 14700 nM | EC50 (HIV-1 IIIb [2]): 1.7 ± 0.2 nM | EC50 [3]: 1.6 ± 0.5 nM | EC50 (Influenza A/PC/1/73): 12800 nM | CC50 at 5 days [4]: > 50000 nM | EC50 [5]: > 50000 nM | EC50 (HCV 2a Replicon): > 44000 nM | EC50 (Influenza B/LEE/40): 15100 nM | Frequency of Viral Breakthrough with RAMs (HIV-1 BaL [6]): 0% | p24+ Wells (HIV-1 BaL [6]): 0/24 | EC50 (HIV-1 IIIb [7]; Human immunodeficiency virus 1, IIIB, MT2, Table S9 footnote b, read-out: EC50 previously determined (start of resistance selection at twice the EC50)): 1.6 nM | EC50 (HIV-1 IIIb [7]; [12]): 1.5 ± 0.2 nM | EC50 [8, 13]: 1.8 ± 0.5 nM | EC50 [8, 14]: 2.8 ± 0.6 nM | EC50 [8, 15]: 13.7 ± 2.1 nM | EC50 [8, 16]: 6.5 ± 1.2 nM | EC50 [8, 17]: 2 ± 0.2 nM | EC50 [8, 18]: 3.6 ± 0.5 nM | EC50 [8, 19]: 6.2 ± 2.4 nM | EC50 [8, 20]: 2.4 ± 0.6 nM | EC50 [8, 21]: 4.7 ± 1.5 nM | EC50 [8, 22]: 1 ± 0.3 nM | EC50 [8, 23]: 3.6 ± 0.4 nM | EC50 [8, 24]: 2.5 ± 0.4 nM | EC50 [8, 25]: 2.1 ± 0.7 nM | EC50 [8, 26]: 3.6 ± 0.8 nM | EC50 [8, 27]: 4 ± 1.1 nM | EC50 [8, 28]: 6.4 ± 0.8 nM | EC50 [8, 29]: 1.9 ± 0.5 nM | EC50 [8, 30]: 1.4 ± 0.3 nM | levels of resistance of double IN mutants ([8]; {}): 2.1-10 fold | CC50 (in vitro; Donor 1): > 100000 nM | CC50 (in vitro; Donor 2): > 100000 nM | EC50 (HIV-2 CDC 310319): 2.5 ± 0.5 nM | EC50 (HIV-1 BaL [9]): 3.1 ± 2.5 nM | EC50 [10, 31]: 5.4 nM | EC50 ([10]; HIV-1-IIIb (unselected)): 2.5 nM | EC50 [10, 32]: 3.6 nM | EC50 [10, 33]: 6.4 nM | EC50 [10, 34]: 8.3 nM | EC50 [10, 35]: 12 nM | EC50 [10, 36]: 19.1 nM | EC50 [10, 37]: 14.7 nM | EC50 [10, 38]: 3.2 nM | EC50 [10, 39]: 7.8 nM | EC50 [10, 40]: 10.3 nM | EC50 [10, 41]: 12.4 nM | EC50 [10, 42]: 15.6 nM | EC50 [10, 43]: 19.7 nM | EC50 [10, 44]: 7.1 nM | EC50 [10, 45]: 7.1 nM | EC50 [10, 46]: 8.1 nM | EC50 [10, 47]: 6.6 nM | EC50 [10, 48]: 3.5 nM | CC50 at 5 days [11]: 5350 nM
